Test results reported in paper PMC8406200, “SAMase of Bacteriophage T3 Inactivates Escherichia coli’s Methionine S-Adenosyltransferase by Forming Heteropolymers” (mBio, 2021).

B1: E. coli methionine S-adenosyltransferase (MAT), recombinant, C-terminal His6 (enzyme, E. coli MG1655, UniProt P0A817 1-384, looked up)
chain: MAKHLFTSESVSEGHPDKIADQISDAVLDAILEQDPKARVACETYVKTGMVLVGGEITTSAWVDIEEITRNTVREIGYVHSDMGFDANSCAVLSAIGKQSPDINQGVDRADPLEQGAGDQGLMFGYATNETDVLMPAPITYAHRLVQRQAEVRKNGTLPWLRPDAKSQVTFQYDDGKIVGIDAVVLSTQHSEEIDQKSLQEAVMEEIIKPILPAEWLTSATKFFINPTGRFVIGGPMGDCGLTGRKIIVDTYGGMARHGGGAFSGKDPSKVDRSAAYAARYVAKNIVAAGLADRCEIQVSYAIGVAEPTSIMVETFGTEKVPSEQLTLLVREFFDLRPYGLIQMLDLLHPIYKETAAYGHFGREHFPWEKTDKAQLLRDAAGLK
notes: Homotetramer (dimer of dimers); also called EcMAT; E. coli MAT; source: E. coli BL21(DE3) (pET24a), purified (Ni-NTA, SEC)
B2: S-Adenosylmethionine lyase (SAMase) of bacteriophage T3, C-terminal His-tagged (enzyme)
chain: MIFTKEPAHVFYVLVSAFRSNLCDEVNMSRHRHMVSTLRAAPGLYGSVESTDLTGCYREAISSAPTEEKTVRVRCKDKAQALNVARLACNEWEQDCVLVYKSQTHTAGLVYAKGIDGYKAERLPGSFQEVPKGAPLQGCFTIDEFGRRWQVQ
notes: S-adenosylmethionine lyase (SAMase) of bacteriophage T3, UniProt P07693; gene synthesized de novo with six His codons at the 3' end; anticipated monomer size around 17 kDa; Dimer by SEC, cross-linking and cryo-EM; also called T3 SAMase; 6×His-tagged SAMase; not shown: His6, C-terminal, kept

Legend:
E. coli MAT (EcMAT) [1] = target: T1, E. coli MAT (EcMAT) (Escherichia coli, UniProt P0A817, D132P/V133T/I178V/I211V/A214P, form not given); assay: HPLC (SCX, […] nm) of SAM / MTA formation; assay type: biochemical; conditions: mutant EcMAT; methionine as co-substrate; pH 7.5, 10 mM MgCl2, 37°C; W26L as printed (position doubtful, probably W216L)
T1 construct: gene metK; C-terminal His6 tag, full length, pET24a, BL21(DE3); homotetramer (dimer of dimers), ~43 kDa subunit
T1 sequence (P0A817 2-384 D132P/V133T/I178V/I211V/A214P, form open): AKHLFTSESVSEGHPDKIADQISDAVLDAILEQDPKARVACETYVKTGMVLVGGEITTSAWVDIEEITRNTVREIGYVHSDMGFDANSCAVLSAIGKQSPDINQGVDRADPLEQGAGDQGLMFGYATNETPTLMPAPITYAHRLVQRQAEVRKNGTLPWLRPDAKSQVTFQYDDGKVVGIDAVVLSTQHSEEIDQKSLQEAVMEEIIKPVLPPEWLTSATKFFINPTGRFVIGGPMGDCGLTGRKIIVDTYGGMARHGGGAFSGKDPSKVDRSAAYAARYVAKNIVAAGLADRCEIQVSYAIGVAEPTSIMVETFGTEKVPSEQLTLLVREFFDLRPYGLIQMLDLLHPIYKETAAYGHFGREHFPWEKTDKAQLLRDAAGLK

E. coli MAT (EcMAT) [2] = target: T2, E. coli MAT (EcMAT) (Escherichia coli, UniProt P0A817); assay: HPLC (SCX, […] nm) of SAM formation; assay type: biochemical; conditions: 80 μM ATP, 1 mM methionine, 250 nM enzyme; 25 mM HEPES pH 7.5, 100 mM KCl, 10 mM MgCl2, 1 mM DTT; 37°C; no SAMase
T2 construct: gene metK; C-terminal His6 tag, full length, pET24a, BL21(DE3); homotetramer (dimer of dimers), ~43 kDa subunit
T2 sequence (P0A817 2-384): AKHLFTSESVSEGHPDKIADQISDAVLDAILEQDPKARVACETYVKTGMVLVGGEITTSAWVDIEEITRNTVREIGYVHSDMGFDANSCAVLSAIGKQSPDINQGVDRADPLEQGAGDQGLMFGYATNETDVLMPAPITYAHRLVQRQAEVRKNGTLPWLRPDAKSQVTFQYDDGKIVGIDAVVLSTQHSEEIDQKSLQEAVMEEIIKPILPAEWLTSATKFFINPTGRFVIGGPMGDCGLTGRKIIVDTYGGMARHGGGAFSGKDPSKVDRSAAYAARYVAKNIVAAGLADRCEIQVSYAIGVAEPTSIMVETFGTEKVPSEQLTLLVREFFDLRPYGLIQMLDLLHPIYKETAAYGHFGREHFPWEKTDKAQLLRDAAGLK

[3] = target: T3, U. urealyticum MAT (UuMAT) (Ureaplasma urealyticum, UniProt A0ABM9XK24); assay: HPLC (SCX, […] nm) of SAM / MTA formation; assay type: biochemical; conditions: 80 μM ATP, 1 mM methionine, 250 nM enzyme; pH 7.5, 10 mM MgCl2, 37°C
T3 construct: gene metK
T3 sequence (A0ABM9XK24 1-376): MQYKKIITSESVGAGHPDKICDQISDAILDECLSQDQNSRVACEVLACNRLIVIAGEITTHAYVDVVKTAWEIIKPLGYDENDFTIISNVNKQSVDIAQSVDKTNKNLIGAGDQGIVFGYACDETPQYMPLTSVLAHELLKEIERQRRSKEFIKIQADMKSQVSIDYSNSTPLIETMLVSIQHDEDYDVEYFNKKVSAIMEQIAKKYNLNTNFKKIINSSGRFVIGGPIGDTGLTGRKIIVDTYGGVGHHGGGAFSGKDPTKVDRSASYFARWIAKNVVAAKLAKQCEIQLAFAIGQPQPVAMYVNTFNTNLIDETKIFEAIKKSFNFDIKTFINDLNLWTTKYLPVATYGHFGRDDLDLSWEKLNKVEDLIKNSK

N. gonorrhea MAT (NgMAT) = target: T4, N. gonorrhea MAT (NgMAT) (Neisseria gonorrhoeae, UniProt Q5FAC0); assay: HPLC (SCX, […] nm) of SAM / MTA formation; assay type: biochemical; conditions: 80 μM ATP, 1 mM methionine, 250 nM enzyme; pH 7.5, 10 mM MgCl2, 37°C
T4 construct: gene metK
T4 sequence (Q5FAC0 1-389): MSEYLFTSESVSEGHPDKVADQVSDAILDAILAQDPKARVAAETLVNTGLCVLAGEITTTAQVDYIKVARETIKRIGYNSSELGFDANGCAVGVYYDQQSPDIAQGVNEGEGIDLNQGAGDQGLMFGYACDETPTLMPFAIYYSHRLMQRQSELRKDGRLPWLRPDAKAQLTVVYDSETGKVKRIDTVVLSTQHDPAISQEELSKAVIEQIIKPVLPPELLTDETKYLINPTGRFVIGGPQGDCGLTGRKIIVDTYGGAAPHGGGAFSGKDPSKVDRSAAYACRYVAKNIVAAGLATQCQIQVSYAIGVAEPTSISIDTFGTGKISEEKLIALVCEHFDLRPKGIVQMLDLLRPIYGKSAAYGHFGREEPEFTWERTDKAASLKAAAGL

[4] = target: the molecule itself; assay: cryo-EM structure; refolded SAMase and E. coli MAT mixed 1:1 (160 μM monomer each) with 500 μM SAM, preincubated 48 h, high-molecular-weight SEC peak; single-particle, no symmetry imposed (C1)
[5] = target: B1; assay: as above; conditions: both partners purified
[6] = target: the molecule itself; assay: SEC; SAMase alone on Superdex 200 Increase 10/300 GL against protein standards; natively purified and refolded SAMase; 25 mM Tris pH 8.0, 150 mM KCl, 1 mM DTT

Molecule | HPLC (SCX, 254 nm) of SAM / MTA formation (E. coli MAT (EcMAT) [1]) | HPLC (SCX, 254 nm) of SAM formation (E. coli MAT (EcMAT) [2]) | HPLC (SCX, 254 nm) of SAM / MTA formation [3] | HPLC (SCX, 254 nm) of SAM / MTA formation (N. gonorrhea MAT (NgMAT)) | stoichiometry N [4] | binding result [5] | stoichiometry N [6]
Nc1ncnc2c1ncn2[C@@H]1O[C@H](COP(=O)(O)OP(=O)(O)OP(=O)(O)O)[C@@H](O)[C@H]1O [ATP] | mutant E. coli MAT (EcMAT mut) was measured either alone (blue trace, rate of SAM production | Synthesis of SAM from ATP and methionine by E. coli MAT was conducted in the absence | Synthesis of SAM from ATP and methionine of MAT proteins was conducted | Synthesis of SAM from ATP and methionine of MAT proteins was conducted | – | – | –
CSCC[C@H](N)C(=O)O [methionine] | – | Synthesis of SAM from ATP and methionine by E. coli MAT was conducted in the absence | Synthesis of SAM from ATP and methionine of MAT proteins was conducted | Synthesis of SAM from ATP and methionine of MAT proteins was conducted | – | – | –
B1 | – | – | – | – | 4 | – | –
B2 | – | – | – | – | – | binds | 2
